Data published in publication PMC9346113, “Therapeutic impact of BET inhibitor BI 894999 treatment: backtranslation from the clinic” (British Journal of Cancer, 2022).

Tests used:
Ty-82 BRD4-NUT = test: Cell proliferation assay (Alamar readout), Ty-82; assay type: cell-based, human; conditions: Homo sapiens, TY82, 96h, read-out: geomean GI50
Protocol: The NUT Carcinoma cell line Ty-82 was purchased from JCRB Japan No. 1330 and cultivated in RPMI 1640 supplemented with 10% fetal calf serum (FCS). The NC cell lines 10–15, 14169 and 10326 were in-licensed from Christopher French, Brigham & Womens Hospital, Boston, and were cultivated in DMEM supplemented with glutamax and 10% FCS.
Viability assays were performed on 96-well flat-bottom microtiter plates and incubated with Alamar Blue solution (Invitrogen, Carlsbad, US-CA). The effects of drug combinations were analysed using the Bliss Independence Model.
Dose response curves (96h cell proliferation assay - Alamar readout) on four NC cell lines with BET inhibitor BI 894999. Yellow bar: readout t zero (before adding of compound). Green bar: DMSO control (max proliferation).
Dose response curves (96h cell proliferation assay - Alamar readout) on four NC cell lines with multiple BET inhibitors.

BRD3-NUT [1] = system: T1, BRD3-NUT; test: Immunofluorescence staining of NUT megadomains, 10326; assay type: cell-based, human; conditions: 10326 cells; 30 minutes treatment
T1 construct: endogenous in cells; host or cells: 10326 NUT carcinoma cells, in culture (A11) and as subcutaneous xenograft tumours in NOG mice (A26)
Protocol: Cells were seeded on four-well chamber slides (Merck Millipore, #PEZGS0416). After treatment, cells were fixed with 4% PFA (16% Solution, Thermo Fischer #28908 Paraformaldehyde, diluted 1:4 in PBS), permeabilised with 0,1% TX-100 (Sigma #93443, diluted in PBS). After blocking in blocking buffer (10% normal goat serum, Sigma #G9023–10ml, diluted in blocking solution: 2% BSA/PBS, Sigma #A7284–50ml, diluted 1:15 in PBS), the first antibody mAB rabbit anti-NUT 1:1000 (clone C52B1, Cell Signaling #3625) in blocking buffer was added, followed by incubation with the 2nd antibody goat anti-rabbit Alexa*488 1:1000 (Thermo Fisher, #A-11008) in blocking buffer in the dark. Cells were mounted with ProLong Gold Antifade Mountant with DAPI (Thermo Fisher, #P36931) and analysed using a Laser scanning microscope (LSM700).
[…] Upper row: antibody against NUT, lower row: DAPI.

HEXIM1 and HIST2H2BF = test: Nanostring analysis of pathway modulation markers in patient blood; assay type: in vivo; conditions: patients
Protocol: Schedule B (NCT02516553): daily oral treatment from Day 1 to Day 14 at 2.5 mg/day followed by a week-off in 3-week cycles. Schedule C (NCT02516553): one week-on, one week-off treatment, repeated every two weeks in 4-week cycles with, at each treatment week, a loading dose (6 mg) on Day 1 followed by a maintenance dose (3 mg per day) on the following 6 days.
Total RNA was extracted from whole blood using PAXgene Blood RNA kit (Qiagen) following the manufacturers’ instructions. Total RNA was quantified by direct absorbance measurement at 260 nm using a NanoDrop Spectrophotometer. Quality check was performed by additional measurement of absorbance at 280 nm and calculation of the absorbance ratio OD260/OD280.
mRNA expression was assessed using a custom NanoString nCounter codeset generated for the genes of interest plus housekeeping genes. In brief, probes were hybridised to 150 ng of total RNA for 19 h at 65 °C and applied to the nCounter™ Preparation Station for automated removal of excess probe and immobilisation of probe‐transcript complexes on a streptavidin‐coated cartridge. Data was collected using the nCounter™ Digital Analyzer by counting the individual barcodes.
Data were analysed using an in-house analysis pipeline that follows the latest Nanostring Technologies standards for the analysis of nCounter data. The analysis pipeline includes QC of the raw data using the NACHO [26]. The housekeeping genes ACTB, GAPDH, HPRT1, MGAT1 and TMED9 were used for normalisation. After normalisation expression values were exported and used for figure generation using […] [27].

[2] = system: Ty-82 xenograft (BRD4-NUT); test: Ty-82 NC xenograft model; assay type: in vivo, mice; conditions: 2 mg/kg BI 894999 p.o. daily
Description: Mice were group-housed (8–10 mice per cage) under pathogen-free and controlled environmental conditions (21 ± 1.5 C temperature, 55 ± 10% humidity) in an AAALAC accredited facility and handled according to the institutional, governmental and European Union guidelines (Austrian Animal Protection Laws, GV-SOLAS and FELASA guidelines). Animal studies were approved by the internal ethics committee and the local government committee. Mice were 6- to 8-week-old female CIEA NOG purchased from Taconic, Denmark (NOD.Cg-Prkdc^scid Il2rg^tm1Sug/JicTac). 5 × 10^6 NC tumour cells were injected subcutaneously into the right flank of the mice (1 site per mouse). Mice were randomly distributed between the treatment and the vehicle control when tumours were well established and had reached volumes of 100–150 mm^3. Compounds were suspended in 0.5% Natrosol and administered once daily intra-gastral by gavage needle. Tumour diameters were measured three times a week with a calliper. […] Within each subtopic the p-values of the efficacy parameters were adjusted for multiple comparisons according to Bonferroni–Holm. The p-values of the tolerability parameter remained unadjusted in order not to overlook a possible adverse effect. The level of significance was fixed at α = 5%. An adjusted p-value of less than 0.05 was considered to show a statistically significant difference between the groups. The statistical evaluation was prepared using the software Graph Pad Prism.

BRD3-NUT [3] = system: T1, BRD3-NUT; test: IHC of 10326 xenograft tumours, NUT protein; assay type: in vivo, mice; conditions: day 21, 2 mg/kg BI 894999
Protocol: Immunohistochemistry was performed on formalin-fixed, paraffin-embedded tumour tissue using antibodies against human Ki67(Cell Signaling #9027, 1:400 dilution), anti-human mitochondria (Abcam ab92824, 1:1000 dilution) and against endogenous NUT protein (Cell Signaling #3625, 1:50 dilution) used to detect NUT fusion proteins. Digital images of whole tissue sections were acquired using a Leica SCN400 histology scanner (Leica Microsystems). Ki67-positive index was evaluated using Halo Software V. 3.2 (Indica lab). Regions of interest (ROIs) within the tissue sections were first identified using Halo Software via machine learning technology across pathological samples and tissue control, within these ROIs, nuclei were detected and classified as positive or negative based on IHC staining thresholds.
BRD3-NUT 10326 tumor sections after treatment with 2 mg/kg BI 894999, 5 mg/kg or 10 mg/kg CCS1477 and the combination of both. IHC staining for NUT protein.

In the case of CNc1nc(-c2nc3ccc(N4CCN(C)CC4)cc3n2Cc2ccccc2)cn2c(C)nnc12 [BI 894999], the GI50 (Ty-82 BRD4-NUT) is reported as 2.6 nM, the “concentration at which BRD3-NUT detaches from chromatin” value (BRD3-NUT [1]) is reported as 3 to 10 nM and the “pharmacodynamic modulation of HEXIM1 and HIST2H2BF” value (HEXIM1 and HIST2H2BF; Schedule B 2.5 mg) is reported as “max. two-fold”. The “PD modulation of HEXIM1 and HIST2H2BF” value (HEXIM1 and HIST2H2BF; Schedule C 6/3 mg, maximum) was “up to four-fold”, the “PD modulation of HEXIM1 and HIST2H2BF still measurable” value (HEXIM1 and HIST2H2BF; Schedule C, 23.5 h after drug application) was “two-fold” and the “TGI (tumour growth inhibition)” value [2] was 5%. The “speckled megadomain localisation (NUT staining)” value (BRD3-NUT [3]) was “complete loss”.
